Measurements as given in US9045563B2, “CXC chemokine receptor 4 (CXCR4) antagonistic polypeptide” (priority 2007, dated 2015).
Where two headings read alike, the source gives them in different places. Ends that are not written are not given here.

How the values were obtained:
X4 tropic HIV-1 NL4-3 [1] = conditions: TZM-bl cells; for IC50: read-out: IC50 ± SEM, X4 tropic HIV-1 NL4-3, two days post infection, synthetic peptides
Description: HIV inhibition test were performed by seeding 4000 P4-R5 MAGI cells (P. Charneau et al., J. Mol. Biol. 241: 651, 1994) in 100 μl of DMEM (10% FCS, 100 U/ml penicillin G, and 100 μg/ml streptomycin sulfate). P4-R5 cells are stably transfected with an LTR-lacZ cassette and upon successful infection by HIV-1 will express—galactosidase in a Tat-dependent manner, which can be detected in a chemiluminescence test. On the following day, aliquots of the fractions were added. Therefor the lyophilized fractions were resuspended in 80 μl of DMEM, and 25 μl each thereof was pipetted to P4-R5 cells, incubated at 37° C. for 1 hour and subsequently infected with HIV-1 NL4—3 (1 ng of p24 antigen). Virus stocks were obtained by transient infection of 293T cells with proviral DNA by the calcium phosphate method (CalPhos™ Mammalian Transfection Kit, Clontech). Virus stocks were harvested 48 hours post transfection, filtrated and used for infection. Three days post infection, β-galactosidase activity in infected P4-R5 cells was detected using GalScreen assay (TROPIX) as recommended by the manufacturer. Briefly, supernatant was removed, 40 μl of a 1:1 dilution of PBS/GalScreen+substrate was added, followed by incubation at room temperature for 30 min. Then 30 μl of the lysates were transferred into 96 well lumiplates. Subsequently, the lumines-cence was detected as relative light units per second in a luminometer (Berthold, ORION). From all measurements, the mean β-galactosidase background activity of non-infected control cells was subtracted. % infection values for each infection were calculated relative to no peptide containing controls (100%). The enzyme activities in measurements without ALB408-423 were set at 100%, and all other values were based thereon. The final purification (7th step) was examined under exactly the same conditions in TZM-bl cells (X. Wei et al., Antimicrob. Agents Chemother. 46: 1896, 2002).
1.6 mg of fraction 31 from the 7th step in Example 1 was dissolved in 160 μl of DMEM. Subsequently, 10 μl of serial dilutions of fraction 31 containing ALB408-423 were added to 60 μl of TZM-bl cells (60 μl) and infected with 1 ng of p24 antigen HIV-1 NL4—3 in a total volume of 100 μl. Three days later, infection rates were determined in a GalScreen assay (see Example 1).
(§1) 5000 TZM-bl cells were seeded in 100 μl of DMEM (10% FCS, 100 U/ml of penicillin G and 100 μg/ml of streptomycin sulfate). ALB408-423 was dissolved in PBS (10 mg/ml). One day later, 20 μl serial dilutions of ALB408-423 in PBS were added to cells and cells were subsequently infected with 0.5 ng of p24 antigen HIV-1 in a total volume of 200 μl. HIV-1 molecular clones differing in coreceptor tropism were used and generated as described (Papkalla et al., J. Virol. 76: 8455-9, 2002).
Table 1. Antiviral activity of various ALB fragments against X4 tropic HIV-1 NL4-3 infection. TZM-bl cells containing serial dilutions of synthetic peptides were infected with HIV-1 NL4-3 and infection rates were determined and calculated as described in example 1 and 2 at two days post infection. IC50 values were determined using the GraphPad Prism software package.
Various ALB408-423 derivatives containing N or C terminal deletions or amino acid substitutions (Table 1) were chemically synthesized and lyophilized peptides were dissolved in PBS. The antiviral activity was analyzed in TZM-bl cells using X4 tropic HIV-1 NL4-3 as described (example 4).

X4 tropic HIV-1 NL4-3 [2] = experiment: X4 tropic HIV-1 infection and replication in PBMC, p24 antigen ELISA; assay type: cell-based; conditions: 100 μM peptide, day 6 post infection
Description: To analyze the effect of ALB408-423 and derivatives thereof in relevant primary cells, peripheral blood mononuclear cells were isolated from Buffy coat derived from the DRK-Blutspendedienst Baden-Württemberg-Hessen using Ficoll density centrifugation. 1×10^6 PBMC per ml were stimulated with 1 μg/ml phytohemagglutinine (PHA, Oxoid, #3085280) and 10 ng/ml Interleukin 2 (IL-2, Strathmann, #9511192) for three days. Thereafter cells were pelleted and resuspended in IL-2 containing medium. 1.5×10^5 PBMC (250 μl) were seeded in 96 well dishes, peptides were added and cells were infected with […] p24 antigen of X4 tropic HIV-1 NL4-3. Supernatants containing progeny virus were taken at day 1, 3 and 6 post infection. Virus production was measured by p24 antigen ELISA (SAIC-Frederick, Inc [AIDS & Cancer virus program]). […] In the presence of 20 μM peptides virus replication was severely impaired.
FIG. 11. ALB408-423 and derivatives inhibit X4 tropic HIV-1 infection of peripheral blood mononuclear cells (PBMC). Cells were incubated with indicated concentrations of ALB408-423 or truncated variants and infected with X4 tropic HIV-1. Supernatants obtained after 6 days were analyzed by p24 ELISA. Shown are mean p24 antigen values (ng/ml) derived from triplicate infections±standard deviation.

[3] = tested on: CCR5 tropic HIV-1 variants; experiment: Infection of TZM-bl cells by R5 tropic HIV-1 variants, GalScreen; assay type: cell-based; conditions: 100 μM peptide
Description: as §1
(§2) FIG. 3: Chemically synthesized ALB408-423 specifically blocks X4 tropic HIV-1 infection. TZM-bl cells containing indicated dilutions of peptide were infected with HIV-1 variants differing in their coreceptor tropism. 3 days later Gal Screen assay was used to measure infection rates. […] B) Infection rates in the presence of 500 μg/ml ALB408-423 showing that the peptide specifically blocks X4 but not R5 tropic HIV-1 infection. Data shown are mean values±standard deviation derived from triplicate infections relative to PBS containing cells (100% infection).
(§3) After 3 days, infection was detected using GalScreen assay (TROPIX) (example 1). […] In contrast, CCR5 tropic HIV-1 variants were not inhibited even in the presence of very high doses of ALB408-423 (500 μg/ml) (FIG. 3B). Due to the specific inhibition of the infection caused by X4-tropic HIV-1 variants, it is to be assumed that ALB408-423 interacts with the chemokine receptor CXCR4.
(§4) Virus stocks were first titrated on TZM-bl cells. Then TZM-bl cells containing 100 μM of peptides were infected with infectivity normalized amounts of X4, dualtropic (X4/R5) or R5 tropic HIV-1.
(§5) FIG. 10. ALB408-423 and truncated ALB derivatives specifically block X4 tropic HIV-1 infection. TZM-bl cells either containing PBS or 100 μM of indicated peptides were infected with normalized infectivities of X4, dualtropic or R5 tropic HIV-1 clones. Infection rates were measured 2 days post infection using the GalScreen assay. Shown are mean values (% of PBS treated control)±standard deviations derived from triplicate measurements.

[4] = tested on: dual tropic (CXCR4 and CCR5 using) variant 92ht593.1; experiment: Infection of TZM-bl cells by dual tropic HIV-1, GalScreen; assay type: cell-based; conditions: 100 μM peptide
Description: as §1, §2, §3, §4, §5

[5] = tested on: X4 tropic HIV-1 variants NL4-3, P51-Sc, P59-S/27 and P34-S; conditions: TZM-bl cells, 100 μM peptide
Description: as §1, §2, §3, §4, §5

CXCR4 [6] = target: T1, CXCR4 (Homo sapiens, UniProt P61073); experiment: Fluorescent binding assay on whole living cells, CXCL12-TR competition on HEK293 EGFP-hCXCR4; design: expressed in transfected cells
T1 sequence (P61073 whole entry): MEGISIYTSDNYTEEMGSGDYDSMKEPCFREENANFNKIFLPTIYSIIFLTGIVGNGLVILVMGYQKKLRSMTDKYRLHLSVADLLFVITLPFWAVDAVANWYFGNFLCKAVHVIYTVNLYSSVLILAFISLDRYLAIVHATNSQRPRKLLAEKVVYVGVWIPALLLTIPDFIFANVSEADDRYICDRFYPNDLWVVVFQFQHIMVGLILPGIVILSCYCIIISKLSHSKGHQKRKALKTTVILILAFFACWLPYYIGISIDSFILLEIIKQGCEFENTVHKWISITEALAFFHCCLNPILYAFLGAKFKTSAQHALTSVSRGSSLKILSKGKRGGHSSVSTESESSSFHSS
Description: FIG. 17. CXCR4 antagonistic activities of ALB derivatives. […] CXCR4 or CCR5 expressing HEK293 cells were treated with CXCR4 agonist CXCL12 (10 nM) or CCR5 agonist CCL5 (20 nM), respectively, in the absence (no ALB) or presence of indicated ALB derivatives (50 μM). Calcium responses were recorded as described. Data shown are mean values±standard deviation derived from duplicates relative to peak calcium responses after treatment with agonists only (100%). […] CXCR4 expressing HEK293 cells were treated with Texas Red labeled CXCL12 (CXCL12-Tr) in the presence or absence of ALB peptides. Real-time fluorescence monitoring of ligand-receptor interactions was carried out as described.

CXCR4 [7] = target: T1, CXCR4; design: expressed in transfected cells; conditions: read-out: dissociation constant of fluorescent CXCL12 for the CXCR4 receptor; cited from earlier work

Substance | antiviral activity against X4 tropic HIV-1 NL4-3 (words, SAR study) (X4 tropic HIV-1 NL4-3 [1]) | IC50 (X4 tropic HIV-1 NL4-3 [1]) [µM] | other results
ALB408-416: SEQ ID No 15; C terminal truncation of ALB408-423, sequence not printed in Table 1 (LVRYTKKVP; listed as Homo sapiens) | remained active | – | –
AVRYTKKVPQVS [ALB408A-419, AVRYTKKVPQVS] | inactive peptides | – | –
FVRYTKKVPQVS [ALB408F-419, FVRYTKKVPQVS] | inactive peptides | – | –
GVRYTKKVPQVS [ALB408G-419, GVRYTKKVPQVS] | inactive peptides | – | –
IVRYTKKVPQVS [ALB408I-419] | – | 1.55 ± 1.2 | p24 antigen in supernatants (X4 tropic HIV-1 NL4-3 [2]): No p24 antigen could be detected; effect on R5 tropic HIV-1 infection [3]: no effect; inhibition of dualtropic HIV-1 clone 92ht593.1 [4]: only moderately; block of infection by X4 tropic HIV-1 clones (NL4-3, P51-Sc, P34-s) [5]: almost completely
KKVPQVSTPTL [ALB413-423, KKVPQVSTPTL] | severely impaired or abrogated antiviral activity | > 100 | –
KVPQVSTPTL [ALB414-423, KVPQVSTPTL] | severely impaired or abrogated antiviral activity | – | –
LARYTKKV [ALB-V409A, LARYTKKV] | – | 32.9 | –
LLVRYTKKVPQVS [ALB407-419, LLVRYTKKVPQVS] | reduced its antiviral activity | – | –
LVAYTKKV [ALB-R410A, LVAYTKKV] | – | > 1000 | –
LVRATKKV [ALB-Y411A, LVRATKKV] | – | 91 | –
LVRYAKKV [ALB-T412A, LVRYAKKV] | – | 11.2 ± 0.1 | effect on R5 tropic HIV-1 infection [3]: no effect; inhibition of dualtropic HIV-1 clone 92ht593.1 [4]: only moderately; block of infection by X4 tropic HIV-1 clones (NL4-3, P51-Sc, P34-s) [5]: almost completely
LVRYTAKV [ALB-K413A, LVRYTAKV] | – | 56 | –
LVRYTK [ALB408-413, LVRYTK] | – | > 50 | Kd (CXCR4 [6]): > 200 µM
LVRYTKAV [ALB-K414A, LVRYTKAV] | – | 31 | –
LVRYTKK [ALB408-414, LVRYTKK] | remained active | – | –
LVRYTKKA [ALB-V415A, LVRYTKKA] | – | 33 | –
LVRYTKKV [ALB408-415, LVRYTKKV] | remained active | 17.4 ± 6.5 | –
LVRYTKKVPQ [ALB408-417, LVRYTKKVPQ] | remained active | 19.9 ± 4.1 | –
LVRYTKKVPQV [ALB408-418, LVRYTKKVPQV] | remained active | – | –
LVRYTKKVPQVS [ALB408-419, LVRYTKKVPQVS] | remained active | 4.4 ± 1 | p24 antigen in supernatants (X4 tropic HIV-1 NL4-3 [2]): only marginal p24 levels; effect on R5 tropic HIV-1 infection [3]: no effect; inhibition of dualtropic HIV-1 clone 92ht593.1 [4]: only moderately; block of infection by X4 tropic HIV-1 clones (NL4-3, P51-Sc, P34-s) [5]: almost completely
LVRYTKKVPQVST [ALB408-420, LVRYTKKVPQVST] | remained active | – | –
LVRYTKKVPQVSTP [ALB408-421, LVRYTKKVPQVSTP] | remained active | – | –
LVRYTKKVPQVSTPT [ALB408-422, LVRYTKKVPQVSTPT] | remained active | – | –
RYTKKVPQVSTPTL [ALB410-423, RYTKKVPQVSTPTL] | severely impaired or abrogated antiviral activity | > 100 | –
TKKVPQVSTPTL [ALB412-423, TKKVPQVSTPTL] | severely impaired or abrogated antiviral activity | > 100 | –
VPQVSTPTL [ALB415-423, VPQVSTPTL] | severely impaired or abrogated antiviral activity | > 100 | –
YTKKVPQVSTPTL [ALB411-423, YTKKVPQVSTPTL] | severely impaired or abrogated antiviral activity | – | –
fluorescent CXCL12: synthesized human chemokine CXCL12 labeled with Texas Red, fluorescent CXCR4 ligand | – | – | Kd (CXCR4 [7]): 0.055 ± 0.015 µM
